Key:
Assay type in all cases: in vivo
[1] = test system: Pharbitis purpurea; assay: Post-emergence herbicidal action, PHBPU; conditions: post-emergence, dosage 80 g/ha
How it was run: (§1)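 Visual % damage versus untreated plants, scored about 3 weeks post-spray (100% = dead, 0% = like control). Greenhouse plants in sandy loam were treated at one-leaf stage with WP/EC formulations in water at 600 to 800 l/ha plus 0.2% wetting agent.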

[2] = test system: Amaranthus retroflexus; assay: Pre-emergence herbicidal action, AMARE; design: key to Herbicidal action against AMARE: % activity: 100 = plants have died, 0 = like control plants
How it was run: (§2)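 Greenhouse pre-emergence test: formulated compound (WP or EC) applied in water to the soil covering sown seeds, 600–800 l/ha, 0.2% wetting agent. Scored visually in percent at 3 weeks versus untreated plants.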

[3] = test system: Stellaria media; assay: Pre-emergence herbicidal action, STEME; conditions: dosage 320 g/ha, scored visually after 3 weeks vs untreated controls (100% = plants have died)
How it was run: as §2

[4] = test system: Matricaria inodora; assay: Post-emergence herbicidal action, MATIN; design: key: % herbicidal action vs untreated; 100 = plants died, 0 = like control; conditions: post-emergence, dosage 80 g/ha
How it was run: as §1

[5] = test system: Setaria viridis; assay: Pre-emergence herbicidal action, SETVI; design: key to Herbicidal action against SETVI: % activity: 100 = plants have died, 0 = like control plants
How it was run: as §2

[6] = test system: Abutilon theophrasti; assay: Post-emergence herbicidal action, ABUTH; design: key: % herbicidal action vs untreated; 100 = plants died, 0 = like control; conditions: post-emergence
How it was run: as §1

[7] = test system: Setaria viridis; assay: Post-emergence herbicidal action, SETVI; design: key: % herbicidal action vs untreated; 100 = plants died, 0 = like control; conditions: post-emergence
How it was run: as §1

[8] = test system: Polygonum convolvulus; assay: Pre-emergence herbicidal action, POLCO
How it was run: as §2

[9] = test system: Hordeum murinum; assay: Pre-emergence herbicidal action, HORMU; conditions: dosage 320 g/ha, scored visually after 3 weeks vs untreated controls (100% = plants have died)
Source text: (§3) 1. Pre-Emergence Herbicidal Action Against Harmful Plants Seeds of monocotyledonous and dicotyledonous weed plants and crop plants are laid out in sandy loam soil in wood-fiber pots and covered with soil. The compounds of the invention, formulated in the form of wettable powders (WP) or as emulsion concentrates (EC), are then applied to the surface of the covering soil in the form of an aqueous suspension or emulsion at a water application rate equating to 600 to 800 l/ha, with addition of 0.2% wetting agent. After the treatment, the pots are placed in a greenhouse and kept under good growth conditions for the trial plants. The damage to the test plants is scored visually after a test period of 3 weeks by comparison with untreated controls (herbicidal activity in percent (%): 100% activity=the plants have died, 0% activity=like control plants). […] The tables below illustrate, in an exemplary manner, the […] herbicidal action of the compounds according to the invention, the herbicidal activity being stated in percent. [table] In the experiments that follow, herbicidal action of numerous inventive compounds and the known compounds that are structurally closest from D1 (WO 2012/028579 A1) and D2 (WO 2018/202535 A1) were compared under the above-specified conditions by the pre-emergence and post-emergence method. The example numbers given in the tables relate to the compounds disclosed in the respective documents. In addition to the compounds disclosed in D1 and D2, the following compounds V-1 to V-14 that are encompassed by D1 or D2 but are not compounds specified therein were used in the comparative experiments: • V-1: 2-(methylsulfanyl)-3-(methylsulfinyl)-N-(1-methyl-1H-tetrazol-5-yl)-4-(trifluoromethyl)benzamide • V-2: 2-(methylsulfanyl)-3-(methylsulfonyl)-N-(1-methyl-1H-tetrazol-5-yl)-4-(trifluoromethyl)benzamide • V-3: 2,3-bis(ethylsulfanyl)-N-(1-methyl-1H-tetrazol-5-yl)-4-(trifluoromethyl)benzamide • V-4: 2-chloro-3-(ethylsulfanyl)-N-(1-methyl-1H-tetrazol-5-yl)-4-(trifluoromethyl)benzamide • V-5: 2-chloro-4-iodo-3-(methylsulfanyl)-N-(1-methyl-1H-tetrazol-5-yl)benzamide • V-6: 2-chloro-4-iodo-3-(methylsulfinyl)-N-(1-methyl-1H-tetrazol-5-yl)benzamide • V-7: 2-chloro-4-iodo-3-(methylsulfonyl)-N-(1-methyl-1H-tetrazol-5-yl)benzamide • V-8: 2-bromo-3-(methylsulfanyl)-N-(1-methyl-1H-tetrazol-5-yl)-4-(trifluoromethyl)benzamide • V-9: 2-bromo-3-(methylsulfinyl)-N-(1-methyl-1H-tetrazol-5-yl)-4-(trifluoromethyl)benzamide • V-10: 2-bromo-3-(methylsulfonyl)-N-(1-methyl-1H-tetrazol-5-yl)-4-(trifluoromethyl)benzamide • V-11: 2-bromo-3-(ethylsulfanyl)-N-(1-methyl-1H-tetrazol-5-yl)-4-(trifluoromethyl)benzamide • V-12: 2-bromo-3-(ethylsulfinyl)-N-(1-methyl-1H-tetrazol-5-yl)-4-(trifluoromethyl)benzamide • V-13: 2-bromo-3-(ethylsulfonyl)-N-(1-methyl-1-1H-tetrazol-5-yl)-4-(trifluoromethyl)benzamide • V-14: 2-cyclopropyl-3-(ethylsulfanyl)-N-(1-methyl-1H-tetrazol-5-yl)-4-(trifluoromethyl)benzamide Herbicidal Pre-Emergence Action: […]

[10] = test system: Abutilon theophrasti; assay: Pre-emergence herbicidal action, ABUTH; design: key to Herbicidal action against ABUTH: % activity: 100 = plants have died, 0 = like control plants
How it was run: as §2

[11] = test system: Amaranthus retroflexus; assay: Post-emergence herbicidal action, AMARE; design: key: % herbicidal action vs untreated; 100 = plants died, 0 = like control; conditions: post-emergence, dosage 80 g/ha
How it was run: as §1

[12] = test system: Viola tricolor; assay: Pre-emergence herbicidal action, VIOTR; design: key to Herbicidal action against VIOTR: % activity: 100 = plants have died, 0 = like control plants
How it was run: as §2

[13] = test system: Echinochloa crus-galli; assay: Pre-emergence herbicidal action, ECHCG
How it was run: as §2

[14] = test system: Matricaria inodora; assay: Pre-emergence herbicidal action, MATIN; conditions: dosage 320 g/ha, scored visually after 3 weeks vs untreated controls (100% = plants have died)
How it was run: as §2

[15] = test system: Echinochloa crus-galli; assay: Post-emergence herbicidal action, ECHCG; design: key: % herbicidal action vs untreated; 100 = plants died, 0 = like control; conditions: post-emergence, dosage 80 g/ha
How it was run: as §1

[16] = test system: Polygonum convolvulus; assay: Post-emergence herbicidal action, POLCO; conditions: comparative experiment, post-emergence, 5 g of a.i./ha
Experimental: (§4) [table] 2. Post-Emergence Herbicidal Action Against Harmful Plants Seeds of monocotyledonous and dicotyledonous weed and crop plants are laid out in sandy loam soil in wood-fiber pots, covered with soil and cultivated in a greenhouse under good growth conditions. 2 to 3 weeks after sowing, the test plants are treated at the one-leaf stage. The compounds of the invention, formulated in the form of wettable powders (WP) or as emulsion concentrates (EC), are then sprayed onto the green parts of the plants in the form of an aqueous suspension or emulsion at a water application rate equating to 600 to 800 l/ha, with addition of 0.2% wetting agent. After the test plants have been left to stand in the greenhouse under optimal growth conditions for about 3 weeks, the action of the preparations is assessed visually in comparison to untreated controls (herbicidal action in percent (%): 100% activity=the plants have died, 0% activity=like control plants). […] The tables below illustrate, in an exemplary manner, the post-emergence herbicidal action of the compounds according to the invention, the herbicidal activity being stated in percent. In the experiments that follow, herbicidal action of numerous inventive compounds and the known compounds that are structurally closest from D1 (WO 2012/028579 A1) and D2 (WO 2018/202535 A1) were compared under the above-specified conditions by the pre-emergence and post-emergence method. The example numbers given in the tables relate to the compounds disclosed in the respective documents. In addition to the compounds disclosed in D1 and D2, the following compounds V-1 to V-14 that are encompassed by D1 or D2 but are not compounds specified therein were used in the comparative experiments: • V-1: 2-(methylsulfanyl)-3-(methylsulfinyl)-N-(1-methyl-1H-tetrazol-5-yl)-4-(trifluoromethyl)benzamide • V-2: 2-(methylsulfanyl)-3-(methylsulfonyl)-N-(1-methyl-1H-tetrazol-5-yl)-4-(trifluoromethyl)benzamide • V-3: 2,3-bis(ethylsulfanyl)-N-(1-methyl-1H-tetrazol-5-yl)-4-(trifluoromethyl)benzamide • V-4: 2-chloro-3-(ethylsulfanyl)-N-(1-methyl-1H-tetrazol-5-yl)-4-(trifluoromethyl)benzamide • V-5: 2-chloro-4-iodo-3-(methylsulfanyl)-N-(1-methyl-1H-tetrazol-5-yl)benzamide • V-6: 2-chloro-4-iodo-3-(methylsulfinyl)-N-(1-methyl-1H-tetrazol-5-yl)benzamide • V-7: 2-chloro-4-iodo-3-(methylsulfonyl)-N-(1-methyl-1H-tetrazol-5-yl)benzamide • V-8: 2-bromo-3-(methylsulfanyl)-N-(1-methyl-1H-tetrazol-5-yl)-4-(trifluoromethyl)benzamide • V-9: 2-bromo-3-(methylsulfinyl)-N-(1-methyl-1H-tetrazol-5-yl)-4-(trifluoromethyl)benzamide • V-10: 2-bromo-3-(methylsulfonyl)-N-(1-methyl-1H-tetrazol-5-yl)-4-(trifluoromethyl)benzamide • V-11: 2-bromo-3-(ethylsulfanyl)-N-(1-methyl-1H-tetrazol-5-yl)-4-(trifluoromethyl)benzamide • V-12: 2-bromo-3-(ethylsulfinyl)-N-(1-methyl-1H-tetrazol-5-yl)-4-(trifluoromethyl)benzamide • V-13: 2-bromo-3-(ethylsulfonyl)-N-(1-methyl-1-1H-tetrazol-5-yl)-4-(trifluoromethyl)benzamide • V-14: 2-cyclopropyl-3-(ethylsulfanyl)-N-(1-methyl-1H-tetrazol-5-yl)-4-(trifluoromethyl)benzamide Herbicidal Pre-Emergence Action: […]

[17] = test system: Cyperus esculentus; assay: Pre-emergence herbicidal action, CYPES; design: key: % activity: 100 = plants have died, 0 = like control plants; conditions: comparative experiment
Source text: as §3

[18] = test system: Avena fatua; assay: Post-emergence herbicidal action, AVEFA; design: key: % herbicidal action vs untreated; 100 = plants died, 0 = like control; conditions: comparative experiment, post-emergence, 20 g of a.i./ha
Experimental: as §4

[19] = test system: Stellaria media; assay: Post-emergence herbicidal action, STEME; design: key: % herbicidal action vs untreated; 100 = plants died, 0 = like control; conditions: comparative experiment, post-emergence, 20 g of a.i./ha
How it was run: as §1

[20] = test system: Alopecurus myosuroides; assay: Post-emergence herbicidal action, ALOMY; design: key: % herbicidal action vs untreated; 100 = plants died, 0 = like control; conditions: comparative experiment, post-emergence, 20 g of a.i./ha
Experimental: as §4

[21] = test system: Veronica persica; assay: Post-emergence herbicidal action, VERPE; design: key: % herbicidal action vs untreated; 100 = plants died, 0 = like control; conditions: comparative experiment, post-emergence, 20 g of a.i./ha
How it was run: as §1

[22] = test system: Viola tricolor; assay: Post-emergence herbicidal action, VIOTR; design: key: % herbicidal action vs untreated; 100 = plants died, 0 = like control; conditions: comparative experiment, post-emergence, 20 g of a.i./ha
How it was run: as §1

[23] = test system: Veronica persica; assay: Pre-emergence herbicidal action, VERPE; design: key to Herbicidal action against VERPE: % activity: 100 = plants have died, 0 = like control plants; conditions: comparative experiment, 80 g of a.i./ha
How it was run: as §2

[24] = dosage 320 g/ha, scored visually after 3 weeks vs untreated controls (100% = plants have died)
[25] = comparative experiment, 20 g of a.i./ha
[26] = comparative experiment, 80 g of a.i./ha

SMILES: CCn1nnnc1NC(=O)c1ccc(I)c(CSC)c1Cl [Example 2-362]
- Herbicidal action against PHBPU [1]: 90
- herbicidal activity AMARE [2, 24]: 100%
- herbicidal activity STEME [3]: 100%
- Herbicidal action against MATIN [4]: 100
- herbicidal activity SETVI [5, 24]: 100%
- Herbicidal action against ABUTH ([6]; dosage 80 g/ha): 90
- Herbicidal action against SETVI ([7]; dosage 80 g/ha): 90
- herbicidal activity POLCO [8, 24]: 100%
- herbicidal activity HORMU [9]: 90%
- herbicidal activity ABUTH [10, 24]: 100%
- Herbicidal action against AMARE [11]: 100
- herbicidal activity VIOTR [12, 24]: 100%
- herbicidal activity ECHCG [13, 24]: 100%
- herbicidal activity MATIN [14]: 100%
- Herbicidal action against ECHCG [15]: 100

SMILES: CSc1c(C(=O)Nc2nnnn2C)ccc(C(F)(F)F)c1S(C)(=O)=O [Example V-2, 2-(methylsulfanyl)-3-(methylsulfonyl)-N-(1-methyl-1H-tetrazol-5-yl)-4-(trifluoromethyl)benzamide, reference compound]
- Herbicidal action against POLCO [16]: 0
- Herbicidal action against CYPES ([17]; 20 g of a.i./ha): 0
- Herbicidal action against POLCO [8, 25]: 0
- pest or weed control at 20 g/ha ([13]; Echinochloa crus-galli, 504 h, comparative experiment, 20 g of a.i./ha, read-out: Herbicidal action against ECHCG): 50%

SMILES: CSc1c(C(F)(F)F)ccc(C(=O)Nc2nnnn2C)c1Br [Example V-8, 2-bromo-3-(methylsulfanyl)-N-(1-methyl-1H-tetrazol-5-yl)-4-(trifluoromethyl)benzamide, reference compound]
- Herbicidal action against CYPES ([17]; 20 g of a.i./ha): 0

SMILES: CCSc1c(C(F)(F)F)ccc(C(=O)Nc2nnnn2C)c1Br [Example V-11, 2-bromo-3-(ethylsulfanyl)-N-(1-methyl-1H-tetrazol-5-yl)-4-(trifluoromethyl)benzamide, reference compound]
- Herbicidal action against AMARE [2, 26]: 0
- Herbicidal action against SETVI [5, 26]: 0
- Herbicidal action against CYPES ([17]; 80 g of a.i./ha): 0
- Herbicidal action against ABUTH [6, 25]: 0
- Herbicidal action against SETVI [7, 25]: 0
- Herbicidal action against AVEFA [18]: 0
- Herbicidal action against STEME [19]: 0
- Herbicidal action against ABUTH [10, 26]: 0
- Herbicidal action against ALOMY [20]: 0
- Herbicidal action against VERPE [21]: 40
- Herbicidal action against VIOTR [12, 26]: 80
- Herbicidal action against VIOTR [22]: 20
- pest or weed control at 80 g/ha ([13]; Echinochloa crus-galli, 504 h, comparative experiment, 80 g of a.i./ha, read-out: Herbicidal action against ECHCG): 0%
- Herbicidal action against VERPE [23]: 10
